# According to patent US20190223443A1, “Methods to Increase Corn Growth” (Valent BioSciences LLC, priority 2015, published 2019):
# Tested on: corn hybrid B73 X Mo17
# Assay: Greenhouse study Long Grove, Ill., sprayed at V1-V2, change in height and synergy (Example 7)
# Format: in vivo
# Settings: for Change in height from day of treatment, 2 days post treatment: control 9.74; for Change in height from day of treatment, 4 days post treatment: control 22.59; for Change in height from day of treatment, 6 days post treatment: control 43.03
# Protocol: A greenhouse study was conducted at Long Grove, Ill. Seeds of the corn hybrid B73 X Mo17 was sown into potted soil on May 7, 2014. Plants were sprayed at 11 days post sowing (V1-V2) with solutions containing a non-ionic surfactant (0.25%, v/v) and growth was followed for 6 days. GA3 refers to gibberellic acid and ABA refers to abscisic acid. Results of the study described in 3. above can be seen in the following tables describing change in height in centimeters from day of treatment (Table 8) and change in height in centimeters from day of treatment compared to control (Table 9).
# Synergy is calculated as follows: […]
# Observed difference in height from control/Expected difference in height from control, where expected difference in height from control is the sum of the observed difference in height of each active ingredient applied alone. If the ratio between the experimentally observed efficacy of the mixture and the expected efficacy of the mixture is greater than 1, than synergistic interactions are present in the mixture.
compound,measurement,setting,value
"CC1=CC(=O)CC(C)(C)[C@@]1(O)/C=C/C(C)=C\C(=O)O [ABA, abscisic acid]","Observed change in height from day of treatment compared to control, 2 days post treatment",ABA 8.6 ppm alone,−0.17 cm
same,"Observed change in height from day of treatment compared to control, 4 days post treatment",ABA 8.6 ppm alone,−0.72 cm
same,"Observed change in height from day of treatment compared to control, 6 days post treatment",ABA 8.6 ppm alone,−1.37 cm
same,"Change in height from day of treatment, 2 days post treatment",ABA 8.6 ppm alone,9.57 cm
same,"Change in height from day of treatment, 4 days post treatment",ABA 8.6 ppm alone,21.87 cm
same,"Change in height from day of treatment, 6 days post treatment",ABA 8.6 ppm alone,41.66 cm
same,"Observed change in height from day of treatment compared to control, 2 days post treatment",ABA 10 ppm alone,−0.11 cm
same,"Observed change in height from day of treatment compared to control, 4 days post treatment",ABA 10 ppm alone,−0.15 cm
same,"Observed change in height from day of treatment compared to control, 6 days post treatment",ABA 10 ppm alone,−0.33 cm
same,"Change in height from day of treatment, 2 days post treatment",ABA 10 ppm alone,9.63 cm
same,"Change in height from day of treatment, 4 days post treatment",ABA 10 ppm alone,22.44 cm
same,"Change in height from day of treatment, 6 days post treatment",ABA 10 ppm alone,42.70 cm
same,"Observed change in height from day of treatment compared to control, 2 days post treatment",ABA 12 ppm alone,0.75 cm
same,"Observed change in height from day of treatment compared to control, 4 days post treatment",ABA 12 ppm alone,−0.49 cm
same,"Observed change in height from day of treatment compared to control, 6 days post treatment",ABA 12 ppm alone,0 cm
same,"Change in height from day of treatment, 2 days post treatment",ABA 12 ppm alone,10.49 cm
same,"Change in height from day of treatment, 4 days post treatment",ABA 12 ppm alone,22.10 cm
same,"Change in height from day of treatment, 6 days post treatment",ABA 12 ppm alone,43.03 cm
same,Height of the corn compared to the control (in words),"applied alone, at both 4 and 6 days post treatment",either did not increase or decreased the height
